Source: patent US20260098026A1, “M4 ACTIVATORS/MODULATORS AND USES THEREOF” (Cerevel Therapeutics, LLC, priority 2022, published 2026)
pEC50: −log10 of the molar value.

Key:
[1] = biological target: T1, M3 muscarinic acetylcholine receptor (mAChR) (Homo sapiens, UniProt P20309); experiment: FLIPR calcium assay (Fluo 8), M3-overexpressing CHO-K1 cells; type: cell-based
T1 construct: expressed in transfected cells; host or cells: CHO-K1
Method in brief: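 CHO-K1 cells overexpressing each human receptor seeded at 15,000 per well, grown overnight at 37° C., 5% CO2, then loaded with Fluo-8 for 30 min. Compounds in HBSS added and calcium response read on FLIPR; EC50 and Emax calculated per subtype.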

M4 mAChR = biological target: T2, M4 mAChR (Homo sapiens, UniProt P08173); experiment: cAMP TR-FRET assay with forskolin, M4-overexpressing CHO-K1 cells; type: cell-based
T2 construct: expressed in transfected cells; host or cells: CHO-K1
T2 sequence (P08173 1-479): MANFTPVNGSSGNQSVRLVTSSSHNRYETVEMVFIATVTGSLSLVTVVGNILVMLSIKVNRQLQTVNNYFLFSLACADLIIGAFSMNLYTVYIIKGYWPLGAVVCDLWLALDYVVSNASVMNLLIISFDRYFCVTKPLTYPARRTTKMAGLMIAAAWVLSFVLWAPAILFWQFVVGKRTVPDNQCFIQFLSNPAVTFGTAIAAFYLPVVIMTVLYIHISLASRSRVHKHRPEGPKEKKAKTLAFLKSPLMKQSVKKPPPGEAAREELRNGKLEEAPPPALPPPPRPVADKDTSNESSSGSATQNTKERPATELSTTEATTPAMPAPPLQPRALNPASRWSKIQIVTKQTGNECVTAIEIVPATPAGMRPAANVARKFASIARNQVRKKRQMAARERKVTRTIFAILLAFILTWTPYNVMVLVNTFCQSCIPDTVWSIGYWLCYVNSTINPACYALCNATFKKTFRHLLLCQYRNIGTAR
Method in brief: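 CHO-K1 cells overexpressing the receptor were stimulated with forskolin to raise cAMP, so that Gi-mediated agonist decreases could be measured. cAMP was quantified by TR-FRET competition between cellular cAMP and labelled donor for anti-cAMP antibody, giving potency and efficacy.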

T1 sequence (P20309 whole entry): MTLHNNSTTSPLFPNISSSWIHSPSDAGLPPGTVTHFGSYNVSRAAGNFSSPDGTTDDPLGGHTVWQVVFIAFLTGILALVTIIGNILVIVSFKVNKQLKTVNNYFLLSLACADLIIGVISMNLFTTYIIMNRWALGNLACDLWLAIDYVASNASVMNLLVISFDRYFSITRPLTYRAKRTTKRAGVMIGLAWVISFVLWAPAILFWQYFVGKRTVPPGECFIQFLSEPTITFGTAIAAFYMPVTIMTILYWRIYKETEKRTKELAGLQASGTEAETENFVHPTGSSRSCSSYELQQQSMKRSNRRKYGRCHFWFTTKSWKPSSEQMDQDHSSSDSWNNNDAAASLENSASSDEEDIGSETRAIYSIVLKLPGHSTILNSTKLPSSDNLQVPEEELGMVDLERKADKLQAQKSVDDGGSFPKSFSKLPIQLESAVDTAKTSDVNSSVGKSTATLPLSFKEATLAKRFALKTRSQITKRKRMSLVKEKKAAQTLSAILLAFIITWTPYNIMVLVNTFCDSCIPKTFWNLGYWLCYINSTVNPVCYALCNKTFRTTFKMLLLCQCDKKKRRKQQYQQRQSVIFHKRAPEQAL

Structure (SMILES)	pEC50 ([1]; FLIPR)	Emax (M4 mAChR; cAMP assay)	pEC50 ([1]; FLIPR calcium)	Emax (M4 mAChR; cAMP TR-FRET with forskolin)
CCOC(=O)N1CC2(CC[C@@H](N3CCN(c4cc(F)cnc4-c4ccc(C#N)cc4)CC3)C2)C1 [Compound A182]	< 5.00	80 to 100%	–	–
CCOC(=O)N1CC2(CC[C@@H](N3CCN(c4cc(F)cnc4-c4ccc(F)nc4C)CC3)C2)C1 [Compound A161]	< 5.00	80 to 100%	–	–
CCOC(=O)N1CC2(CC[C@@H](N3CCN(c4cc(F)cnc4-c4cc(F)nc(F)c4)CC3)C2)C1 [Compound A119]	–	–	< 5.00	80 to 100%
CCOC(=O)N1CC2(CC[C@@H](N3CCN(c4cc(F)cnc4-c4ccc(C#N)c(OC)c4)CC3)C2)C1 [Compound A43]	–	–	< 5.00	80 to 100%
[2H]C([2H])([2H])n1cc(-c2ncc(F)cc2N2CCN([C@@H]3CCC4(C3)CN(C(=O)OCC)C4)CC2)cn1 [Compound A187]	< 5.00	80 to 100%	–	–
CCOC(=O)N1CC2(CC[C@@H](N3CCN(c4cc(F)cnc4-c4ccc(OC)cc4C#N)CC3)C2)C1 [Compound A152]	< 5.00	80 to 100%	–	–
CCOC(=O)N1CC2(CC[C@@H](N3CCN(c4cc(F)cnc4-c4cc(C)[nH]n4)CC3)C2)C1 [Compound A101]	–	–	< 5.00	80 to 100%
CCOC(=O)N1CC2(CC[C@@H](N3CCN(c4cccnc4-c4cncc(F)c4)CC3)C2)C1 [Compound A26]	–	–	< 5.00	80 to 100%
CCOC(=O)N1CC2(CC[C@@H](N3CCN(c4cc(F)cnc4-c4ccn5ccnc5c4)CC3)C2)C1 [Compound A92]	–	–	< 5.00	80 to 100%
CCOC(=O)N1CC2(CC[C@@H](N3CCN(c4cccnc4-c4cnccn4)CC3)C2)C1 [Compound A244]	< 5.00	80 to 100%	–	–
CCOC(=O)N1CC2(CC[C@@H](N3CCN(c4cc(Cl)cnc4-c4cnn(C)c4)CC3)C2)C1 [Compound A204]	< 5.00	80 to 100%	–	–
CCOC(=O)N1CC2(CC[C@@H](N3CCN(c4cc(F)cnc4-c4cccc(O)n4)CC3)C2)C1 [Compound A143]	–	–	< 5.00	80 to 100%
CCOC(=O)N1CC2(CC[C@@H](N3CCN(c4cc(F)cnc4-c4cccc(C#N)c4)CC3)C2)C1 [Compound A39]	–	–	< 5.00	80 to 100%
CCOC(=O)N1CC2(CC[C@@H](N3CCN(c4cc(F)cnc4-c4ccc5c[nH]nc5c4)CC3)C2)C1 [Compound A159]	< 5.00	80 to 100%	–	–
CCOC(=O)N1CC2(CC[C@@H](N3CCN(c4cc(F)cnc4-c4cc(F)ccc4CO)CC3)C2)C1 [Compound A117]	–	–	< 5.00	80 to 100%
CCOC(=O)N1CC2(CC[C@@H](N3CCN(c4cc(F)cnc4-c4ccc(CCO)cc4)CC3)C2)C1 [Compound A169]	< 5.00	80 to 100%	–	–
CCOC(=O)N1CC2(CC[C@@H](N3CCN(c4cc(F)cnc4-c4cncc(N)c4)CC3)C2)C1 [Compound A174]	< 5.00	80 to 100%	–	–
CCOC(=O)N1CC2(CC[C@@H](N3CCN(c4cc(F)cnc4-c4cc(F)cc(CO)c4)CC3)C2)C1 [Compound A154]	< 5.00	80 to 100%	–	–
CCOC(=O)N1CC2(CC[C@@H](N3CCN(c4cc(F)cnc4-c4ccnc(F)c4OC)CC3)C2)C1 [Compound A163]	< 5.00	80 to 100%	–	–
CCOC(=O)N1CC2(CC[C@@H](N3CCN(c4cc(F)cnc4-n4cc(C)nn4)CC3)C2)C1 [Compound A246]	< 5.00	80 to 100%	–	–
CCOC(=O)N1CC2(CC[C@@H](N3CCN(c4cc(F)cnc4-c4cccc(O)c4F)CC3)C2)C1 [Compound A142]	–	–	< 5.00	80 to 100%
CCOC(=O)N1CC2(CC[C@@H](N3CCN(c4cc(F)cnc4-c4ccc(F)cc4O)CC3)C2)C1 [Compound A115]	–	–	< 5.00	80 to 100%
CCOC(=O)N1CC2(CC[C@@H](N3CCN(c4cc(F)cnc4-c4cnc(C#N)c(F)c4)CC3)C2)C1 [Compound A83]	–	–	< 5.00	80 to 100%
CCOC(=O)N1CC2(CC[C@@H](N3CCN(c4cc(Cl)cnc4-c4nncs4)CC3)C2)C1 [Compound A249]	< 5.00	80 to 100%	–	–
CCOC(=O)N1CC2(CC[C@@H](N3CCN(c4cc(F)cnc4-c4c(O)cccc4F)CC3)C2)C1 [Compound A167]	< 5.00	80 to 100%	–	–
